Data taken from US20240398814A1, “KRAS INHIBITOR AND HDAC INHIBITOR COMBINATION FOR THE TREATMENT OF CANCER” (Northwestern University, priority 2023, published 2024).

How the values were obtained:
KL LJE1 cells = test: Western blot and qRT-PCR of FGFR1, NKX2-1 and ERK phosphorylation in drug-treated KL LJE1 cells; assay type: cell-based, mouse; conditions: 13 days
Description: (§1) All cell lines were incubated at 37° C. and were maintained in an atmosphere containing 5% CO2. Cells were tested for Mycoplasma (Lonza) using manufacturer's conditions and were deemed negative. Cells were grown in Dulbecco's modified Eagles medium (DMEM) plus 10% fetal bovine serum (Gibco) and were continuously maintained under antibiotic selection for stable cell lines. Proliferation assays were performed by plating 2×10^3 cells per well of a 6-well plate, and cells were counted 5 days post-plating. Drug treatments were carried out using the following doses: entinostat 1 uM or 2 uM, RGFP966 10uM, TSA 0.5 uM, BRD3308 5 uM, trametinib 5 nM, 10 nM, and 25 nM, and MRTX1133 10 nM, 25 nM, and 50 nM, as indicated for the indicated treatment lengths. Media was changed and fresh drug added every 2 days.
(§2) mRNA was prepared using the Quick-RNA Miniprep kit (Zymo Research), including DNase treatment. cDNA was synthesized from 2 μg of RNA using SuperScript III (Life Technologies), and qPCR was carried out with diluted cDNA, appropriate primers, and SYBR Green PCR master mix (ThermoFisher Scientific) using a C1000 Thermal Cycler (BioRad). Relative mRNA levels were calculated using the delta Ct method, using Tbp as an internal control.
Protein lysates in CST buffer (20 mM Tris pH 7.5, 150 mM NaCl, 1% Triton X-100, 50 mM NaF, 1 mM EDTA, 1 mM EGTA, 2.5 mM PyroPhosphate, 2 mM beta-glycerol-phosphate, 1 mM orthovanadate, 0.01 mM Calyculan A) with protease inhibitors were equilibrated for protein levels using a BCA protein assay kit (Pierce), resolved on 8% SDS-PAGE gels, and transferred to membrane. Membranes were blocked in milk, incubated o/n at 4C in diluted primary antibody, washed with TBS-T, incubated 1 hr in secondary antibody diluted in TBS-T plus milk, washed in TBS-T, and developed using SuperSignal ECL. Secondary antibodies: anti-rabbit (Millipore AP132P) and anti-mouse (Millipore AP124P). Nuclear fractions were isolated using a NE-PER nuclear and cytoplasmic extraction kit (Thermofisher) under manufacturers conditions.

A549 cells = test: qRT-PCR of chemokine gene expression in A549 cells; assay type: cell-based, human; conditions: 2 uM entinostat 3 days, 5 uM BRD3308 4 days
Description: as §1, §2

H460 cells = test: qRT-PCR of chemokine gene expression in H460 cells; assay type: cell-based, human; conditions: 1 uM entinostat 4 days, 5 uM BRD3308 4 days
Description: as §1, §2

Nc1ccccc1NC(=O)c1ccc(CNC(=O)OCc2cccnc2)cc1 [entinostat]
FGFR1 protein (KL LJE1 cells; Western blot, 10 nM trametinib, 1 uM entinostat): neither FGFR1 protein or mRNA levels were impacted | FGFR1 mRNA levels (KL LJE1 cells; qRT-PCR, 1 uM entinostat alone): neither FGFR1 protein or mRNA levels were impacted | chemokine (SASP) gene expression (A549 cells): induced the expression of these genes | chemokine (SASP) gene expression (H460 cells): induced the expression of these genes
